The test system of series [1] is PC3 prostate cancer cells. The experiment in a line: Cell proliferation assay in prostate cancer PC3 cells. In kind it is cell-based. Conditions: Homo sapiens, PC-3. The procedure:
Cell Proliferation Assay:
PC3 prostate cancer cells were cultured in DMEM/F-12 HAM Mixture (Sigma D8437), 10% Fetal Bovine Serum (Atlanta Biological S11150). Before the treatment, 3.5×10^4 cells per well were split into 12-well plates. After 24 h, 10 μM of each compound was added to each well. DMSO was used as a control. This experiment was done in triplicate. Cell viability and number were analyzed using Vi-Cell XR Cell Viability Analyzer (Beckman Coulter).

Series [2] relates to PC3 prostate cancer cells. The experiment in a line: Cell proliferation assay in prostate cancer PC3 cells. Type of series: cell-based.
For series [3], the system named is different cancer cell lines. The conditions noted are these: cited from earlier work.
The next series relates to P388 leukemia cells. Conditions: cited from earlier work.

Here are results for 24 compounds from patent US9718799B2, “3-aryl-4H-chromene-4-ones as antineoplastic agents for the treatment of cancer” (The University of Kentucky Research Foundation, priority 2015, dated 2017).

`COc1ccc(-c2c(C)oc3c(COC(C)=O)c(OC(C)=O)ccc3c2=O)cc1` [Isoflavonoid 7e, 7-(Acetoxy)-8-(acetoxymethyl)-3-(4-methoxyphenyl)-2-methyl-4H-chromen-4-one]: the melting point was in the range of 142 to 144 °C. In addition, in series [1], the inhibition at 10 µM stood at 98.2 ± 1.5%.
For `COc1ccc(-c2coc3c4c(ccc3c2=O)OC2(O)CCCCC2C4)cc1` (stereo not drawn) [Isoflavonoid 24a, 7a-Hydroxy-3-(4-methoxyphenyl)-8,9,10,11,11a,12-hexahydro-4H,7aH-pyrano[2,3-a]xanthen-4-one], the melting point lay within 222 to 223 °C. For the same compound, in series [1], at 10 µM the inhibition was 30 ± 15%.
The corresponding values for `COCc1c(OC)cc(O)c2c(=O)c(-c3ccc(OC)cc3)coc12` [Isoflavonoid 11b, 5-Hydroxy-7-methoxy-8-(methoxymethyl)-3-(4-methoxyphenyl)-4H-chromen-4-one] are 126 to 128 °C and 96.8 ± 0.8%.
The corresponding values for `COc1ccc(-c2c(C)oc3c4c(ccc3c2=O)OC2OCCCC2C4)cc1` (stereo not drawn) [Isoflavonoid 21g, 3-(4-Methoxyphenyl)-2-methyl-10,11,11a,12-tetrahydro-4H,7aH,9H-dipyrano[2,3-b:2′,3′-f]chromen-4-one] are 199 to 200 °C and 62%.
In series [1], `COc1ccc(-c2coc3c(COC(C)=O)c(OC(C)=O)ccc3c2=O)cc1` [Isoflavonoid 7d, 7-(Acetoxy)-8-(acetoxymethyl)-3-(4-methoxyphenyl)-4H-chromen-4-one] yielded an inhibition at 10 µM of 99.2 ± 0.4%. Also, the “potency at 1 µM concentration” value in series [2] (1 µM concentration) was “retained potency”.
`O=c1c(-c2ccc(O)cc2)coc2cc(O)cc(O)c12` [genistein (B), genistein]: the IC50 in series [3] was 15 to 100 µM.
`COc1ccc(-c2coc3c4c(ccc3c2=O)OC2=C(C4)C(=O)CC(C)(C)C2)cc1OC` [Isoflavonoid 22b, 3-(3,4-Dimethoxyphenyl)-9,9-dimethyl-8,9,10,12-tetrahydro-4H,11H-pyrano[2,3-a]xanthene-4,11-dione] came in with a melting point of 196 to 198 °C. At 10 µM the inhibition in series [1] was 86 ± 1%. For the same compound, at 10 µM the inhibition in series [1] (PC3 cells, 10 μM) was 86%. This compound gave an inhibition at 1 µM in series [2] (Homo sapiens, PC-3, 1 μM) of 31%.
As for `COCc1c(OC)cc(O)c2c(=O)c(-c3ccccc3OC)coc12` [Isoflavonoid 11a, 5-Hydroxy-7-methoxy-8-(methoxymethyl)-3-(2-methoxyphenyl)-4H-chromen-4-one], the melting point fell in the range of 154 to 155 °C. Further, the inhibition at 10 µM in series [1] was 0%.
The corresponding values for `O=c1c(-c2ccc3c(c2)OCO3)coc2c3c(ccc12)OC1OCCCC1C3` (stereo not drawn) [Isoflavonoid 21c, 3-(1,3-Benzodioxol-5-yl)-10,11,11a,12-tetrahydro-4H,7aH,9H-dipyrano[2,3-b:2′,3′-f]chromen-4-one] are 179 to 181 °C and 68%.
The corresponding values for `COc1ccc(-c2c(C)oc3c4c(ccc3c2=O)OC2OCCCC2C4)cc1OC` (stereo not drawn) [Isoflavonoid 21h, 3-(3,4-Dimethoxyphenyl)-2-methyl-10,11,11a,12-tetrahydro-4H,7aH,9H-dipyrano[2,3-b:2′,3′-f]chromen-4-one] are 209 to 210 °C and 44 ± 3%.
The corresponding values for `COc1ccc(-c2coc3c4c(ccc3c2=O)OC2OCCCC2C4)cc1OC` (stereo not drawn) [Isoflavonoid 21b, 3-(3,4-Dimethoxyphenyl)-10,11,11a,12-tetrahydro-4H,7aH,9H-dipyrano[2,3-b:2′,3′-f]chromen-4-one] are 177 to 178 °C and 35 ± 10%.
`COc1ccc(-c2coc3c4c(ccc3c2=O)OC2(O)CCCCC2C4)cc1OC` (stereo not drawn) [Isoflavonoid 24b, 3-(3,4-Dimethoxyphenyl)-7a-hydroxy-8,9,10,11,11a,12-hexahydro-4H,7aH-pyrano[2,3-a]xanthen-4-one] yielded a melting point of 214 to 216 °C. Moreover, the inhibition at 10 µM in series [1] came to 56 ± 5%.
In the same order, the values of `COc1ccc(-c2coc3c(C)c4c(cc3c2=O)CC2CCOC2O4)cc1` (stereo not drawn) [Isoflavonoid 25a, 3-(4-Methoxyphenyl)-11-methyl-6a,7,8,9a-tetrahydro-4H,6H-furo[2,3-b]pyrano[3,2-g]chromen-4-one] are 155 to 157 °C and 78 ± 3%.
`COc1ccc(-c2coc3c(CO)c(O)ccc3c2=O)cc1` [Isoflavonoid 9d, 7-Hydroxy-8-(hydroxymethyl)-3-(4-methoxyphenyl)-4H-chromen-4-one]: the melting point is 150 to 152 °C (dec.). In series [1], this compound came in with an inhibition at 10 µM of 99.5 ± 0.2%.
In the same order, the values of `COCc1c(OC)cc2occ(-c3ccc(OC)cc3)c(=O)c2c1O` [Isoflavonoid 10b, 5-Hydroxy-7-methoxy-6-(methoxymethyl)-3-(4-methoxyphenyl)-4H-chromen-4-one] are 180 to 181 °C and 0%.
The corresponding values for `COCc1c(O)ccc2c(=O)c(-c3ccccc3OC)coc12` [Isoflavonoid 11c, 7-Hydroxy-8-(methoxymethyl)-3-(2-methoxyphenyl)-4H-chromen-4-one] are 164 to 166 °C and 0%.
Take `O=c1c(-c2ccc3c(c2)OCCO3)coc2c3c(ccc12)OC1OCCCC1C3` (stereo not drawn) [Isoflavonoid 21d, 3-(2,3-Dihydro-1,4-benzodioxin-6-yl)-10,11,11a,12-tetrahydro-4H,7aH,9H-dipyrano[2,3-b:2′,3′-f]chromen-4-one]: the melting point lay in the range of 160 to 162 °C. Besides, in series [1], 10 µM produced 48 ± 3% inhibition.
In the same order, the values of `O=c1c(-c2ccc3c(c2)OCO3)coc2c3c(ccc12)OC1OCCC1C3` (stereo not drawn) [Isoflavonoid 20c, 3-(1,3-Benzodioxol-5-yl)-9,10,10a,11-tetrahydro-4H,7aH-furo[2,3-b]pyrano[2,3-f]chromen-4-one] are 203 to 205 °C and 47 ± 4%.
In the same order, the values of `COc1ccc(-c2coc3c4c(ccc3c2=O)OC2OCCC2C4)cc1` (stereo not drawn) [Isoflavonoid 20a, 3-(4-Methoxyphenyl)-9,10,10a,11-tetrahydro-4H,7aH-furo[2,3-b]pyrano[2,3-f]chromen-4-one] are 201 to 202 °C and 62 ± 7%.
In the same order, the values of `Cc1oc2c3c(ccc2c(=O)c1-c1ccc(Cl)cc1)OC1OCCCC1C3` (stereo not drawn) [Isoflavonoid 21i, 3-(4-Chlorophenyl)-2-methyl-10,11,11a,12-tetrahydro-4H,7aH,9H-dipyrano[2,3-b:2′,3′-f]chromen-4-one] are 205 to 206 °C and 74 ± 3%.
On to `COc1ccc(-c2c(C)oc3c4c(ccc3c2=O)OC2(O)CCCCC2C4)cc1` (stereo not drawn) [Isoflavonoid 24g, 7a-Hydroxy-3-(4-methoxyphenyl)-2-methyl-8,9,10,11,11a,12-hexahydro-4H,7aH-pyrano[2,3-a]xanthen-4-one], for which the melting point lay within 212 to 213 °C. Further, the inhibition at 10 µM in series [1] was 78 ± 1%.
The compound `O=c1c(-c2ccc(Cl)cc2)coc2c3c(ccc12)OC1OCCCC1C3` (stereo not drawn) [Isoflavonoid 21e, 3-(4-Chlorophenyl)-10,11,11a,12-tetrahydro-4H,7aH,9H-dipyrano[2,3-b:2′,3′-f]chromen-4-one] gave a melting point of 195 to 197 °C. Besides, in series [1], the inhibition at 10 µM is 44 ± 4%.
As for `COCc1c(OC)cc(O)c2c(=O)cc(C)oc12` [8-(methoxymethyl)eugenin], the cytotoxicity result in the series on P388 leukemia cells was “moderate cytotoxicity”.
`COCc1c(OC)cc2occ(-c3ccccc3OC)c(=O)c2c1O` [Isoflavonoid 10a, 5-Hydroxy-7-methoxy-6-(methoxymethyl)-3-(2-methoxyphenyl)-4H-chromen-4-one] registered a melting point of 123 to 124 °C. At 10 µM the inhibition in series [1] was 53.4 ± 8%.

As usually defined, the inhibition is the relative decrease from the control value, in per cent. Higher therefore signals a strong effect. In general, melting point refers to the temperature, or range, at which the solid turns liquid. By IC50 is commonly meant the point on the concentration scale where inhibition reaches its midpoint.
